Assay [1] concerns the target cGMP-specific 3',5'-cyclic phosphodiesterase (Homo sapiens, UniProt O76074). The assay can be described thus: Inhibition of PDE5 (unknown origin).
Assay [2] has as its target GABA-A receptor; anion channel. The assay can be described thus: Displacement of [3H]flunitrazepam from GABAA (unknown origin ) receptor by radioligand binding assay. Type of assay: protein-complex assay, Homo sapiens.
Assay [3] addresses T1, Gamma-aminobutyric acid receptor subunit alpha-2 (Homo sapiens, UniProt P47869).
T1 sequence (P47869 whole entry): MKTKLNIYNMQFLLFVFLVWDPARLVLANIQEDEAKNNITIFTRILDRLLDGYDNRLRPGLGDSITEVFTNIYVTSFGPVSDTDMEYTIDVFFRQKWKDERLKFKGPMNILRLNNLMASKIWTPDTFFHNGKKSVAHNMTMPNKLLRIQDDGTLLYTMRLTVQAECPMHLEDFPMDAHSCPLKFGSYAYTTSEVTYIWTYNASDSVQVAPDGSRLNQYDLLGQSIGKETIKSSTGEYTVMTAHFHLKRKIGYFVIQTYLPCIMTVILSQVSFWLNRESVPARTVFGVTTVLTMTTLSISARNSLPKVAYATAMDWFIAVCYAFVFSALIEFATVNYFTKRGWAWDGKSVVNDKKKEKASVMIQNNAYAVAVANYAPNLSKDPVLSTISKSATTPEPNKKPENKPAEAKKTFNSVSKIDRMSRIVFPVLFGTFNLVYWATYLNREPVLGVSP
The assay can be described thus: Binding affinity to human recombinant GABAA alpha2 receptor assessed as inhibition constant incubated for 1 hrs by liquid scintillation counting analysis.

Assay [4] deals with T2, Gamma-aminobutyric acid receptor subunit alpha-3 (Homo sapiens, UniProt P34903).
T2 sequence (P34903 whole entry): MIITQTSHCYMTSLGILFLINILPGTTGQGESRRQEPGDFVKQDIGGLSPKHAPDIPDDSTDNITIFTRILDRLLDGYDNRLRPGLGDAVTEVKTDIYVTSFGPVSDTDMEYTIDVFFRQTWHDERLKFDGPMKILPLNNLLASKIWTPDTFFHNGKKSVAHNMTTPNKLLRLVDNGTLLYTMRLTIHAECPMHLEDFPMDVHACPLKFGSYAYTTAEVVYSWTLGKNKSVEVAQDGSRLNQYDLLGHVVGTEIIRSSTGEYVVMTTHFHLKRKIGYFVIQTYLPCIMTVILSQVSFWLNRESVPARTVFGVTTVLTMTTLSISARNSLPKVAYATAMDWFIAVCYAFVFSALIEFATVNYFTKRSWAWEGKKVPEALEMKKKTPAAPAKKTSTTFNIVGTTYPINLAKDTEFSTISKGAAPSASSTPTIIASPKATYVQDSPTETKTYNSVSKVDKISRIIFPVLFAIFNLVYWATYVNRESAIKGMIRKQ
The experiment in a line: Binding affinity to human recombinant GABAA alpha3 receptor assessed as inhibition constant incubated for 1 hrs by liquid scintillation counting analysis.

Assay [5] deals with T3, Gamma-aminobutyric acid receptor subunit alpha-5 (Homo sapiens, UniProt P31644).
T3 sequence (P31644 whole entry): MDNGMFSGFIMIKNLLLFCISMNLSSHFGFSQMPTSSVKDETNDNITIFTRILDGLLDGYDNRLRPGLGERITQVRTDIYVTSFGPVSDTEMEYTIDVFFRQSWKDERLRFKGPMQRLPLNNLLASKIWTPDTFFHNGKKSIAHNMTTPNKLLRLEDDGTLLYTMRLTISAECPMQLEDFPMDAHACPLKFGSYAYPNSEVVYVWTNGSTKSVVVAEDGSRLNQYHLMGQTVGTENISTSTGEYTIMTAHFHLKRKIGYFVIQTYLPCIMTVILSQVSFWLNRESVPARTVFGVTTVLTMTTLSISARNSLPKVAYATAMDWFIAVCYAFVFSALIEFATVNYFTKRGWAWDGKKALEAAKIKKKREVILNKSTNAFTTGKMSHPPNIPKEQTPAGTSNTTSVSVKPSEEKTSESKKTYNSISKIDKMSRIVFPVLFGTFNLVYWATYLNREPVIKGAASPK
The assay can be described thus: Binding affinity to human recombinant GABAA alpha5 receptor assessed as inhibition constant incubated for 1 hrs by liquid scintillation counting analysis.

Assay [6] deals with T4, Gamma-aminobutyric acid receptor subunit alpha-1 (Homo sapiens, UniProt P14867).
T4 sequence (P14867 whole entry): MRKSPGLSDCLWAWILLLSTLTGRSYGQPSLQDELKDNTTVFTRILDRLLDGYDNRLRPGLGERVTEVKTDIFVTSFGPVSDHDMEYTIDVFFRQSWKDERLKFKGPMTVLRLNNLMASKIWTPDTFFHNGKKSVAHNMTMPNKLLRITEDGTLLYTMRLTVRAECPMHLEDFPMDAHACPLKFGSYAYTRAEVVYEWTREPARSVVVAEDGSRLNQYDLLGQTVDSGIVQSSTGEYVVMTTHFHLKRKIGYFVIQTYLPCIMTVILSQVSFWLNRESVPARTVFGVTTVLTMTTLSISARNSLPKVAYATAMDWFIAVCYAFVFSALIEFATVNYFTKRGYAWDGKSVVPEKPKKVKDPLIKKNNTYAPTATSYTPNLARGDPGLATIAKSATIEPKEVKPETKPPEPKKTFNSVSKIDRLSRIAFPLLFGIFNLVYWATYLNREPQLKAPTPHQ
The experiment in a line: Binding affinity to human recombinant GABAA alpha1 receptor assessed as inhibition constant incubated for 1 hrs by liquid scintillation counting analysis.

In assay [7] the target is Gamma-aminobutyric acid receptor subunit alpha-6 (Homo sapiens, UniProt Q16445). The assay can be described thus: Binding affinity to human recombinant GABAA alpha6 receptor assessed as inhibition constant incubated for 1 hrs by liquid scintillation counting analysis.
The target in another assay is Acetylcholinesterase (Homo sapiens, UniProt P22303). The experiment in a line: Inhibition of AChE (unknown origin).

Results on 43 compounds are retold here after ChEMBL document CHEMBL5233266, “β-Carboline as a Privileged Scaffold for Multitarget Strategies in Alzheimer's Disease Therapy” (J Med Chem, 2021).

Each structure is given as a SMILES string.

Gamma-aminobutyric acid receptor subunit alpha-6, sequence (Q16445 whole entry): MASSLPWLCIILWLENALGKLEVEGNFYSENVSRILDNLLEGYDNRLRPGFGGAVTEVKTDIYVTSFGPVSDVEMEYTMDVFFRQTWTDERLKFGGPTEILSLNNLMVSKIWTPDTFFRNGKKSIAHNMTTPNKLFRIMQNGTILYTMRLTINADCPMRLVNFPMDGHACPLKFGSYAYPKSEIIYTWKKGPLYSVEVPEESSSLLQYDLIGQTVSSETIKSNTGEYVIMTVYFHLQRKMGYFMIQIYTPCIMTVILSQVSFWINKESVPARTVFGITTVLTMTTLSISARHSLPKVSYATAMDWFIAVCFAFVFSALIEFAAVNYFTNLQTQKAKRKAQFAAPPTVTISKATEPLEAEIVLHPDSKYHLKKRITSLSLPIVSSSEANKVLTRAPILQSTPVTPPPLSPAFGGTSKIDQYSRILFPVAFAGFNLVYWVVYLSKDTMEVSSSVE
Acetylcholinesterase, sequence (P22303 whole entry): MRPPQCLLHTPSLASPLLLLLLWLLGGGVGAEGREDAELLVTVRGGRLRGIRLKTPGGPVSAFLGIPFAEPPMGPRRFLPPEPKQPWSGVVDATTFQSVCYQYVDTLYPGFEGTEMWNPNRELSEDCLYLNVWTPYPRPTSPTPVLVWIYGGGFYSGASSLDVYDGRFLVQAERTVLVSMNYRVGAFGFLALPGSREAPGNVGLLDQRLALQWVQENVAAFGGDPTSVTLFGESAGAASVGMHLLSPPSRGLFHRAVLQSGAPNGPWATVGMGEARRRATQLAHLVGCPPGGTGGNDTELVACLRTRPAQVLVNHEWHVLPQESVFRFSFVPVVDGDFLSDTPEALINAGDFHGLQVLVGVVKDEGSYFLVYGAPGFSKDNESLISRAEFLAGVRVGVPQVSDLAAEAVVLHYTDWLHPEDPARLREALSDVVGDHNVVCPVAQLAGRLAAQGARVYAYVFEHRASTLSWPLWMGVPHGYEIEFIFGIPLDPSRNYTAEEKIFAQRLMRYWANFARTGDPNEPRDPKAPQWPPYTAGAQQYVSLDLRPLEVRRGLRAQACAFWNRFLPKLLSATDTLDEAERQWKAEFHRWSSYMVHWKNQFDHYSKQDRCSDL

`CCCCN1C(=O)[C@@H]2Cc3c([nH]c4ccccc34)[C@@H](c3ccc(Br)cc3)N2C1=O`: in assay [1], the half-maximal inhibitory concentration (IC50) was 40 nM.
In assay [1], `CCN1C(=O)[C@@H]2Cc3c([nH]c4ccccc34)[C@@H](c3ccc(Cl)cc3)N2C1=O` returned an IC50 of 330 nM.
With `COC(=O)c1cc2c(cn1)[nH]c1ccc(O)cc12`, in assay [2], the IC50 stood at 4 nM.
For the compound `CN1CCN(C(=O)c2ccc(-c3ccc(C(=O)N4CCc5c([nH]c6ccccc56)C4c4ccc5c(c4)OCO5)o3)cc2)CC1` (configuration not stated), in assay [1], the IC50 worked out at 8 nM.
On to `CCOC(=O)c1ncc2[nH]c3ccc(O)cc3c2c1COC`, for which the Ki in assay [3] was found to be 5 nM; in assay [4] it was 11 nM; in assay [5], 19 nM; in assay [6] it was 2 nM; in assay [7] it was 3000 nM. Moreover, the IC50 in assay [2] was determined as 0.5 nM.
As to `c1ccc2c(c1)[nH]c1c2ncc2[nH]c3ccccc3c21`, the inhibition constant (Ki) in assay [3] was 1 nM; in assay [4], 1 nM; in assay [5], 40 nM; in assay [6], 1 nM; in assay [7], over 1000 nM.
As to `CCCCN1CC(=O)N2[C@H](c3ccc(Br)cc3)c3[nH]c4ccccc4c3C[C@H]2C1=O`, inhibition in assay [1] was half-maximal at 10 nM (IC50).
On to `COC(=O)c1cc2c(cn1)[nH]c1ccc(NCc3ccccc3)cc12`, for which the Ki was 30 nM in assay [3]; 49 nM in assay [4]; 480 nM in assay [5]; 5 nM in assay [6]; over 10000 nM in assay [7]. For the same compound, in assay [2], the IC50 was determined as 4 nM.
`CCN1C(=O)[C@@H]2Cc3c([nH]c4ccccc34)[C@@H](c3ccc(Br)cc3)N2C1=O`: the IC50 in assay [1] was 40 nM.
In the case of `COc1ccc2c3c([nH]c2c1N)C(C)NCC3` (configuration not stated), the IC50 against Acetylcholinesterase was 2000 nM.
In the case of `CCCOC(=O)c1cc2c(cn1)[nH]c1ccccc12`, in assay [2], the concentration for half-maximal inhibition (IC50) came to 1 nM.
For the compound `N#Cc1cc2c(cn1)[nH]c1ccccc12`, the half-inhibitory concentration (IC50) in assay [2] came out at 3 nM.
Compound `CCCCN1CC2Cc3c([nH]c4ccccc34)C(c3ccc(OC)cc3)N2C1=O` (configuration not stated) displayed an IC50 in assay [1] of 60 nM.
`CC(C)(C)COC(=O)c1cc2c(cn1)[nH]c1ccccc12` yielded an IC50 in assay [2] of 750 nM.
In assay [1], `O=C1C2Cc3c([nH]c4ccccc34)C(c3ccc4c(c3)OCO4)N2C(=O)CN1Cc1ccccc1` (configuration not stated) registered an IC50 of 3 nM.
In assay [1], `O=C1[C@H]2Cc3c([nH]c4ccccc34)[C@@H](c3ccc4c(c3)OCO4)N2C(=O)CN1[C@@H]1CCN(Cc2cccnc2)C1` registered an IC50 of 2 nM.
With `O=C(O)c1cc2c(cn1)[nH]c1ccccc12`, in assay [2], the IC50 came to 31000 nM.
For `CCc1c(C(=O)OC)nc(C)c2[nH]c3cc(OC)c(OC)cc3c12`, the inhibition constant (Ki) came to 8 nM in assay [3]; 4 nM in assay [4]; 1 nM in assay [5]; 6 nM in assay [6]; 130 nM in assay [7].
On to `CCOC(=O)c1ncc2[nH]c3ccccc3c2c1COC`, for which the Ki in assay [3] was found to be 3 nM; in assay [4], 5 nM; in assay [5] it was 10 nM; in assay [6] it was 0.6 nM; in assay [7] it was 1200 nM. Also, in assay [2], the IC50 was 0.5 nM.
As to `COc1ccc(C2c3[nH]c4ccccc4c3CC3C(=O)N(C4CCCCC4)C(=O)N32)cc1` (configuration not stated), half-maximal inhibition in assay [1] (IC50) was put at 3 nM.
In assay [1], `O=C1[C@H]2Cc3c([nH]c4ccccc34)[C@@H](c3ccc4c(c3)OCO4)N2C(=O)CN1[C@@H]1CCN(Cc2ncc[nH]2)C1` displayed an IC50 of 0.8 nM.
As to `O=C1C2Cc3c([nH]c4ccccc34)C(c3ccc4c(c3)OCO4)N2C(=O)CN1C1CCCCC1` (configuration not stated), the midpoint of inhibition in assay [1], the IC50, lay at 3 nM.
`CCCCN1CC2Cc3c([nH]c4ccccc34)C(c3ccc4c(c3)OCO4)N2C1=O` (configuration not stated) registered an IC50 in assay [1] of 60 nM.
As to `S=C=Nc1cc2c(cn1)[nH]c1ccccc12`, the Ki in assay [6] worked out at 5 nM. Further, the IC50 in assay [2] worked out at 3 nM.
As for `CCCOc1ccc2[nH]c3cnc(C(=O)OCC)c(COC)c3c2c1`, the Ki in assay [3] was 1 nM; in assay [4], 2 nM; in assay [5], 2 nM; in assay [6], 0.5 nM; in assay [7], 1300 nM. In assay [2], this compound registered an IC50 of 0.5 nM.
With `CCCCN1CC(=O)N2C(Cc3c([nH]c4ccccc34)C2c2ccc3c(c2)OCO3)C1=O` (configuration not stated), the IC50 in assay [1] came to 3 nM.
For `CCOC(=O)c1ncc2[nH]c3cccc(OC(C)C)c3c2c1C`, the concentration for half-maximal inhibition (IC50) in assay [2] was 0.4 nM.
For `CCOC(=O)c1cc2c(cn1)[nH]c1ccccc12`, the Ki in assay [6] is 1 nM.
`CCN1C(=O)C2Cc3c([nH]c4ccccc34)C(c3ccc(OC)cc3)N2C1=O` (configuration not stated) came in with a half-inhibitory concentration (IC50) in assay [1] of 3 nM.
For the compound `CCOC(=O)c1ncc2[nH]c3cccc(OCc4ccccc4)c3c2c1COC`, the IC50 in assay [2] worked out at 0.2 nM.
Take `CCCC(=O)c1cc2c(cn1)[nH]c1ccccc12`: the Ki was 16 nM in assay [3]; 21 nM in assay [4]; 1000 nM in assay [5]; 2 nM in assay [6]; over 3000 nM in assay [7]. In addition, the IC50 in assay [2] was 3 nM.
As for `COc1ccc2c3ccnc(C)c3n(CC3CC(c4ccccc4)=NO3)c2c1` (configuration not stated), the IC50 on Acetylcholinesterase was 11000 nM.
`Cn1ccnc1CN1CC[C@@H](N2CC(=O)N3[C@H](c4ccc5c(c4)OCO5)c4[nH]c5ccccc5c4C[C@@H]3C2=O)C1`: in assay [1], the IC50 worked out at 0.8 nM.
As for `CCOC(=O)c1nc(C)c2[nH]c3cc(OC)c(OC)cc3c2c1CC`, the inhibition constant Ki in assay [3] came to 19 nM; in assay [4], 4 nM; in assay [5], 3 nM; in assay [6], 6 nM; in assay [7], 75 nM.
Regarding `C#CCn1c2cc(OC)ccc2c2ccnc(C)c21`, it took 1900 nM to reach half-maximal inhibition at Acetylcholinesterase (IC50).
`COc1ccc(N2CC(=O)N3[C@H](c4ccc5c(c4)OCO5)c4[nH]c5ccccc5c4C[C@@H]3C2=O)cc1` registered an IC50 in assay [1] of 16 nM.
For `CCN1C(=O)[C@H]2Cc3c([nH]c4ccccc34)[C@@H](c3ccc(Br)s3)N2C1=O`, inhibition in assay [1] was half-maximal at 170 nM (IC50).
`O=C1[C@@H]2Cc3c([nH]c4ccccc34)[C@@H](c3ccc4c(c3)OCO4)N2C(=O)CN1CCC1CCN(Cc2ccccc2)CC1`: the IC50 against Acetylcholinesterase came out at 32 nM; in assay [1], 1500 nM.
With `CCOC(=O)c1ncc2[nH]c3ccc(OC)cc3c2c1COC`, the Ki in assay [3] amounted to 1 nM; in assay [4], 2 nM; in assay [5], 4 nM; in assay [6] it was 0.1 nM. Besides, the IC50 in assay [2] came out at 0.5 nM.
`COC(=O)[C@@H]1Cc2c([nH]c3ccccc23)[C@@H](c2ccc(Cl)cc2)N1C(=O)CCl` had an IC50 in assay [1] of 2700 nM.
As for `O=C1C2Cc3c([nH]c4ccccc34)[C@@H](c3ccc4c(c3)OCO4)N2C(=O)CN1CCC1CCN(Cc2ccccc2)CC1` (some centres not stated), the IC50 at Acetylcholinesterase worked out at 36 nM; in assay [1], 150 nM.
In turn, `CC(C)N1CC(=O)N2C(Cc3c([nH]c4ccccc34)C2c2ccc3c(c2)OCO3)C1=O` (configuration not stated) showed an IC50 in assay [1] of 3 nM.
As to `COc1ccc([C@@H]2N[C@@H](C(=O)O)Cc3c2n(C)c2ccccc32)cc1OC`, the IC50 against Acetylcholinesterase amounted to 2500 nM.
